Assay results: ChEMBL document CHEMBL1148908, “Biscoumarin derivatives from Edgeworthia gardneri that inhibit the lyase activity of DNA polymerase beta” (J Nat Prod, 2004)
The source made the active and inactive calls. The rule behind the calls is not given here.

Tests used:
DNA polymerase beta = DNA polymerase beta (Rattus norvegicus, UniProt P06766); assay: Inhibition of lyase activity of rat DNA polymerase beta after 30 mins
[1] = target: DNA polymerase beta (Rattus norvegicus) (UniProt P06766); assay: Inhibition of rat DNA polymerase beta-mediated DNA polymerization up to 100 ug/mL after 1 hr
A549 [2] = assay: Cytotoxicity against human A549 cells at 0.5 uM after 48 hrs; assay type: functional, cell-based
A549 [3] = assay: Cytotoxicity against human A549 cells at 6 uM after 48 hrs in presence of 0.5 uM blenoxane; assay type: functional
A549 [4] = assay: Cytotoxicity against human A549 cells at 6 uM after 48 hrs; assay type: functional; conditions: A549, 48 h

Compound | IC50 (DNA polymerase beta) [µM] | Activity [1] | inhibition (A549 [2]) [%] | inhibition (INH) (A549 [3]) [%] | inhibition at 6 µM (A549 [4]) [%]
COc1cc2cc(Oc3ccc4ccc(=O)oc4c3)c(=O)oc2cc1O [DAPHNORETIN] | 122 | inactive | – | – | –
BLEOMYCIN SULFATE | – | – | 35.5 | – | –
O=c1ccc2ccc(Oc3cc4ccc(O)cc4oc3=O)cc2o1 [EDGEWORIN] | – | inactive | – | 50.7 | 1.6
O=c1ccc2ccc(Oc3cc4cc(O)c(O)cc4oc3=O)cc2o1 [EDGEWORTHIN] | 94.8 | inactive | – | – | –
